Measurements reported in US9963442B2, “Pyridones as herbicides” (E I DU PONT DE NEMOURS AND COMPANY, priority 2014, dated 2018).

Experiments:
Type in all cases: in vivo
Settings in all cases: scale 0 to 100, 0 is no effect, 100 is complete control
[1] = test system: Italian ryegrass (Lolium multiflorum); experiment: Test C preemergence
Source text: (§1) Seeds of plant species selected from blackgrass (Alopecurus myosuroides), Italian ryegrass (Lolium multiflorum), winter wheat (Triticum aestivum), galium (catchweed bedstraw, Galium aparine), corn (Zea mays), large (Lg) crabgrass (Digitaria sanguinalis), giant foxtail (Setaria faberii), johnsongrass (Sorghum halepense), lambsquarters (Chenopodium album), morningglory (Ipomoea coccinea), yellow nutsedge (Cyperus esculentus), pigweed (Amaranthus retroflexus), ragweed (common ragweed, Ambrosia elatior), soybean (Glycine max), barnyardgrass (Echinochloa crus-galli), oilseed rape (Brassica napus), waterhemp (common waterhemp, Amaranthus rudis), and velvetleaf (Abutilon theophrasti) were planted into a blend of loam soil and sand and treated preemergence with test chemicals formulated in a non-phytotoxic solvent mixture which included a surfactant. At the same time, plants selected from these crop and weed species and also chickweed (common chickweed, Stellaria media), kochia (Kochia scoparia), and wild oat (Avena fatua), were planted in pots containing Sunshine Redi-Earth® planting medium comprising spaghnum peat moss, vermiculite, starter nutrients and dolomitic limestone and treated with postemergence applications of test chemicals formulated in the same manner. Plants ranged in height from 2 to 18 cm (1- to 4-leaf stage) for postemergence treatments. Treated plants and controls were maintained in a greenhouse for 13 to 15 days, after which time all species were compared to controls and visually evaluated. Plant response ratings, summarized in Table C, are based on a scale of 0 to 100 where 0 is no effect and 100 is complete control. A dash (-) response means no test result.

[2] = test system: barnyardgrass (Echinochloa crus-galli); experiment: Test C preemergence
Source text: as §1

corn (Zea mays) [3] = experiment: Test C preemergence
Source text: as §1

[4] = test system: giant foxtail (Setaria faberii); experiment: Test C preemergence
Source text: as §1

[5] = test system: morningglory (Ipomoea coccinea); experiment: Test C preemergence
Source text: as §1

[6] = test system: pigweed (Amaranthus retroflexus); experiment: Test C preemergence
Source text: as §1

[7] = test system: yellow nutsedge (Cyperus esculentus); experiment: Test C preemergence
Source text: as §1

[8] = test system: Italian ryegrass (Lolium multiflorum); experiment: Test C postemergence
How it was run: (§2)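 0 = no effect, 100 = complete control: visual greenhouse ratings taken 13–15 days after spraying. Postemergence targets were at the 1- to 4-leaf stage (2–18 cm) in peat-based medium; preemergence pots used loam–sand soil.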

[9] = test system: barnyardgrass (Echinochloa crus-galli); experiment: Test C postemergence
How it was run: as §2

[10] = test system: blackgrass (Alopecurus myosuroides); experiment: Test C postemergence
How it was run: as §2

[11] = test system: chickweed (common chickweed, Stellaria media); experiment: Test C postemergence
How it was run: as §2

corn (Zea mays) [12] = experiment: Test C postemergence
How it was run: as §2

kochia (Kochia scoparia) = experiment: Test C postemergence
How it was run: as §2

[13] = test system: lambsquarters (Chenopodium album); experiment: Test C postemergence
How it was run: as §2

[14] = test system: large (Lg) crabgrass (Digitaria sanguinalis); experiment: Test C postemergence
How it was run: as §2

[15] = test system: morningglory (Ipomoea coccinea); experiment: Test C postemergence
How it was run: as §2

[16] = test system: pigweed (Amaranthus retroflexus); experiment: Test C postemergence
How it was run: as §2

soybean (Glycine max) = experiment: Test C postemergence
How it was run: as §2

[17] = test system: velvetleaf (Abutilon theophrasti); experiment: Test C postemergence
How it was run: as §2

[18] = test system: waterhemp (common waterhemp, Amaranthus rudis); experiment: Test C postemergence
How it was run: as §2

wild oat (Avena fatua) = experiment: Test C postemergence
How it was run: as §2

[19] = test system: winter wheat (Triticum aestivum); experiment: Test C postemergence
How it was run: as §2

[20] = test system: yellow nutsedge (Cyperus esculentus); experiment: Test C postemergence
How it was run: as §2

## O=c1cccc(Oc2ncc(Cl)cn2)n1-c1ncc(Cl)cn1 [Compound 6]
[1]; 16 g ai/ha
  Plant response rating, Ryegrass, Italian: 0
[1]; 31 g ai/ha
  Plant response rating, Ryegrass, Italian: 5
[1]; 62 g ai/ha
  Plant response rating, Ryegrass, Italian: 5
[1]; 125 g ai/ha
  Plant response rating, Ryegrass, Italian: 5
[2]; 16 g ai/ha
  Plant response rating, Barnyardgrass: 0
[2]; 31 g ai/ha
  Plant response rating, Barnyardgrass: 5
[2]; 62 g ai/ha
  Plant response rating, Barnyardgrass: 10
[2]; 125 g ai/ha
  Plant response rating, Barnyardgrass: 40
Corn (Zea mays) [3]; 16 g ai/ha
  Plant response rating, Corn: 0
Corn (Zea mays) [3]; 31 g ai/ha
  Plant response rating, Corn: 5
Corn (Zea mays) [3]; 62 g ai/ha
  Plant response rating, Corn: 0
Corn (Zea mays) [3]; 125 g ai/ha
  Plant response rating, Corn: 5
[4]; 16 g ai/ha
  Plant response rating, Foxtail, Giant: 0
[4]; 31 g ai/ha
  Plant response rating, Foxtail, Giant: 5
[4]; 62 g ai/ha
  Plant response rating, Foxtail, Giant: 70
[4]; 125 g ai/ha
  Plant response rating, Foxtail, Giant: 100
[5]; 16 g ai/ha
  Plant response rating, Morningglory: 5
[5]; 31 g ai/ha
  Plant response rating, Morningglory: 5
[5]; 62 g ai/ha
  Plant response rating, Morningglory: 20
[5]; 125 g ai/ha
  Plant response rating, Morningglory: 55
[6]; 16 g ai/ha
  Plant response rating, Pigweed: 55
[6]; 31 g ai/ha
  Plant response rating, Pigweed: 75
[6]; 62 g ai/ha
  Plant response rating, Pigweed: 90
[6]; 125 g ai/ha
  Plant response rating, Pigweed: 100
[7]; 16 g ai/ha
  Plant response rating, Nutsedge, Yellow: 0
[7]; 31 g ai/ha
  Plant response rating, Nutsedge, Yellow: 0
[7]; 62 g ai/ha
  Plant response rating, Nutsedge, Yellow: 0
[7]; 125 g ai/ha
  Plant response rating, Nutsedge, Yellow: 5
[8]; 16 g ai/ha
  Plant response rating, Ryegrass, Italian: 0
[8]; 31 g ai/ha
  Plant response rating, Ryegrass, Italian: 0
[8]; 62 g ai/ha
  Plant response rating, Ryegrass, Italian: 0
[8]; 125 g ai/ha
  Plant response rating, Ryegrass, Italian: 0
[9]; 16 g ai/ha
  Plant response rating, Barnyardgrass: 5
[9]; 31 g ai/ha
  Plant response rating, Barnyardgrass: 5
[9]; 62 g ai/ha
  Plant response rating, Barnyardgrass: 5
[9]; 125 g ai/ha
  Plant response rating, Barnyardgrass: 10
[10]; 16 g ai/ha
  Plant response rating, Blackgrass: 0
[10]; 31 g ai/ha
  Plant response rating, Blackgrass: 0
[10]; 62 g ai/ha
  Plant response rating, Blackgrass: 5
[10]; 125 g ai/ha
  Plant response rating, Blackgrass: 5
[11]; 16 g ai/ha
  Plant response rating, Chickweed: 50
[11]; 31 g ai/ha
  Plant response rating, Chickweed: 55
[11]; 62 g ai/ha
  Plant response rating, Chickweed: 60
[11]; 125 g ai/ha
  Plant response rating, Chickweed: 55
Corn (Zea mays) [12]; 16 g ai/ha
  Plant response rating, Corn: 5
Corn (Zea mays) [12]; 31 g ai/ha
  Plant response rating, Corn: 10
Corn (Zea mays) [12]; 62 g ai/ha
  Plant response rating, Corn: 10
Corn (Zea mays) [12]; 125 g ai/ha
  Plant response rating, Corn: 20
Kochia (Kochia scoparia); 16 g ai/ha
  Plant response rating, Kochia: 50
Kochia (Kochia scoparia); 31 g ai/ha
  Plant response rating, Kochia: 60
Kochia (Kochia scoparia); 62 g ai/ha
  Plant response rating, Kochia: 80
Kochia (Kochia scoparia); 125 g ai/ha
  Plant response rating, Kochia: 85
[13]; 16 g ai/ha
  Plant response rating, Lambsquarters: 20
[13]; 31 g ai/ha
  Plant response rating, Lambsquarters: 35
[13]; 62 g ai/ha
  Plant response rating, Lambsquarters: 65
[13]; 125 g ai/ha
  Plant response rating, Lambsquarters: 70
[14]; 16 g ai/ha
  Plant response rating, Crabgrass, Large: 5
[14]; 31 g ai/ha
  Plant response rating, Crabgrass, Large: 15
[14]; 62 g ai/ha
  Plant response rating, Crabgrass, Large: 5
[14]; 125 g ai/ha
  Plant response rating, Crabgrass, Large: 20
[15]; 16 g ai/ha
  Plant response rating, Morningglory: 50
[15]; 31 g ai/ha
  Plant response rating, Morningglory: 75
[15]; 62 g ai/ha
  Plant response rating, Morningglory: 65
[15]; 125 g ai/ha
  Plant response rating, Morningglory: 80
[16]; 16 g ai/ha
  Plant response rating, Pigweed: 70
[16]; 31 g ai/ha
  Plant response rating, Pigweed: 70
[16]; 62 g ai/ha
  Plant response rating, Pigweed: 75
[16]; 125 g ai/ha
  Plant response rating, Pigweed: 85
Soybean (Glycine max); 16 g ai/ha
  Plant response rating, Soybean: 40
Soybean (Glycine max); 31 g ai/ha
  Plant response rating, Soybean: 45
Soybean (Glycine max); 62 g ai/ha
  Plant response rating, Soybean: 60
Soybean (Glycine max); 125 g ai/ha
  Plant response rating, Soybean: 70
[17]; 16 g ai/ha
  Plant response rating, Velvetleaf: 50
[17]; 31 g ai/ha
  Plant response rating, Velvetleaf: 65
[17]; 62 g ai/ha
  Plant response rating, Velvetleaf: 75
[17]; 125 g ai/ha
  Plant response rating, Velvetleaf: 75
[18]; 16 g ai/ha
  Plant response rating, Waterhemp: 60
[18]; 31 g ai/ha
  Plant response rating, Waterhemp: 75
[18]; 62 g ai/ha
  Plant response rating, Waterhemp: 70
[18]; 125 g ai/ha
  Plant response rating, Waterhemp: 70
Wild oat (Avena fatua); 16 g ai/ha
  Plant response rating, Oat, Wild: 0
Wild oat (Avena fatua); 31 g ai/ha
  Plant response rating, Oat, Wild: 0
Wild oat (Avena fatua); 62 g ai/ha
  Plant response rating, Oat, Wild: 0
Wild oat (Avena fatua); 125 g ai/ha
  Plant response rating, Oat, Wild: 0
[19]; 16 g ai/ha
  Plant response rating, Wheat: 0
[19]; 31 g ai/ha
  Plant response rating, Wheat: 0
[19]; 62 g ai/ha
  Plant response rating, Wheat: 0
[19]; 125 g ai/ha
  Plant response rating, Wheat: 0
[20]; 16 g ai/ha
  Plant response rating, Nutsedge, Yellow: 0
[20]; 31 g ai/ha
  Plant response rating, Nutsedge, Yellow: 5
[20]; 62 g ai/ha
  Plant response rating, Nutsedge, Yellow: 5
[20]; 125 g ai/ha
  Plant response rating, Nutsedge, Yellow: 5
